{
  "source": "PubChem BioAssay (NCI)",
  "test_in_all_cases": "DTP human tumour cell line panel, 48 h",
  "key": {"SK-MEL-5 melanoma": {"test_system": "SK-MEL-5 melanoma"}, "OVCAR-5 ovarian": {"test_system": "OVCAR-5 ovarian"}, "NCI-H460 lung": {"test_system": "NCI-H460 lung"}, "SN12C renal": {"test_system": "SN12C renal"}, "786-0 renal": {"test_system": "786-0 renal"}, "OVCAR-4 ovarian": {"test_system": "OVCAR-4 ovarian"}, "SF-539 CNS": {"test_system": "SF-539 CNS"}, "NCI/ADR-RES ovarian": {"test_system": "NCI/ADR-RES ovarian"}, "HL-60(TB) leukemia": {"test_system": "HL-60(TB) leukemia"}, "K-562 leukemia": {"test_system": "K-562 leukemia"}, "KM12 colon": {"test_system": "KM12 colon"}, "HCT-15 colon": {"test_system": "HCT-15 colon"}, "OVCAR-8 ovarian": {"test_system": "OVCAR-8 ovarian"}, "OVCAR-3 ovarian": {"test_system": "OVCAR-3 ovarian"}, "SK-MEL-2 melanoma": {"test_system": "SK-MEL-2 melanoma"}, "TK-10 renal": {"test_system": "TK-10 renal"}, "HOP-92 NSCLC": {"test_system": "HOP-92 NSCLC"}, "ACHN renal": {"test_system": "ACHN renal"}, "MDA-MB-231 breast": {"test_system": "MDA-MB-231 breast"}, "RPMI-8226 leukemia": {"test_system": "RPMI-8226 leukemia"}, "SK-MEL-28 melanoma": {"test_system": "SK-MEL-28 melanoma"}, "HCC-2998 colon": {"test_system": "HCC-2998 colon"}, "SF-268 CNS": {"test_system": "SF-268 CNS"}, "MCF7 breast": {"test_system": "MCF7 breast"}, "MDA-MB-435": {"test_system": "MDA-MB-435"}, "DU-145 prostate": {"test_system": "DU-145 prostate"}, "UO-31 renal": {"test_system": "UO-31 renal"}, "COLO 205 colon": {"test_system": "COLO 205 colon"}, "UACC-257 melanoma": {"test_system": "UACC-257 melanoma"}},
  "note": "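Each compound was tested at five concentrations against cells in 96-well plates for 48 hours. GI50 is the concentration that inhibits growth by half. Definition used: TGI = concentration required for complete inhibition of growth.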",
  "data": [
    {"smiles": "Nc1nn2cc(F)cnc2c1C(=O)Nc1cncc(F)c1N1CCC(C(=O)N2CCN(C3COC3)CC2)CC1", "values": [
      {"measurement": "GI50", "setting": "SK-MEL-5 melanoma", "result": 428, "unit": "nM"},
      {"measurement": "TGI", "setting": "SK-MEL-5 melanoma", "result": 1770, "unit": "nM"},
      {"measurement": "GI50", "setting": "OVCAR-5 ovarian", "result": 616, "unit": "nM"},
      {"measurement": "TGI", "setting": "OVCAR-5 ovarian", "result": "> 100000", "unit": "nM"},
      {"measurement": "GI50", "setting": "NCI-H460 lung", "result": 254, "unit": "nM"},
      {"measurement": "TGI", "setting": "NCI-H460 lung", "result": 7200, "unit": "nM"},
      {"measurement": "GI50", "setting": "SN12C renal", "result": 987, "unit": "nM"},
      {"measurement": "TGI", "setting": "SN12C renal", "result": 6170, "unit": "nM"},
      {"measurement": "GI50", "setting": "786-0 renal", "result": 277, "unit": "nM"},
      {"measurement": "TGI", "setting": "786-0 renal", "result": "> 100000", "unit": "nM"},
      {"measurement": "GI50", "setting": "OVCAR-4 ovarian", "result": 326, "unit": "nM"},
      {"measurement": "TGI", "setting": "OVCAR-4 ovarian", "result": 7860, "unit": "nM"},
      {"measurement": "GI50", "setting": "SF-539 CNS", "result": 164, "unit": "nM"},
      {"measurement": "TGI", "setting": "SF-539 CNS", "result": 571, "unit": "nM"},
      {"measurement": "GI50", "setting": "NCI/ADR-RES ovarian", "result": 749, "unit": "nM"},
      {"measurement": "TGI", "setting": "NCI/ADR-RES ovarian", "result": "> 48500", "unit": "nM"},
      {"measurement": "GI50", "setting": "HL-60(TB) leukemia", "result": 129, "unit": "nM"},
      {"measurement": "TGI", "setting": "HL-60(TB) leukemia", "result": 465, "unit": "nM"},
      {"measurement": "GI50", "setting": "K-562 leukemia", "result": 281, "unit": "nM"},
      {"measurement": "TGI", "setting": "K-562 leukemia", "result": 2740, "unit": "nM"},
      {"measurement": "GI50", "setting": "KM12 colon", "result": 369, "unit": "nM"},
      {"measurement": "TGI", "setting": "KM12 colon", "result": "> 100000", "unit": "nM"},
      {"measurement": "GI50", "setting": "HCT-15 colon", "result": 165, "unit": "nM"},
      {"measurement": "TGI", "setting": "HCT-15 colon", "result": 4130, "unit": "nM"},
      {"measurement": "GI50", "setting": "OVCAR-8 ovarian", "result": 548, "unit": "nM"},
      {"measurement": "TGI", "setting": "OVCAR-8 ovarian", "result": 6130, "unit": "nM"},
      {"measurement": "GI50", "setting": "OVCAR-3 ovarian", "result": 854, "unit": "nM"},
      {"measurement": "TGI", "setting": "OVCAR-3 ovarian", "result": 26000, "unit": "nM"},
      {"measurement": "GI50", "setting": "SK-MEL-2 melanoma", "result": 194, "unit": "nM"},
      {"measurement": "TGI", "setting": "SK-MEL-2 melanoma", "result": 821, "unit": "nM"},
      {"measurement": "GI50", "setting": "TK-10 renal", "result": 888, "unit": "nM"},
      {"measurement": "TGI", "setting": "TK-10 renal", "result": "> 69900", "unit": "nM"},
      {"measurement": "GI50", "setting": "HOP-92 NSCLC", "result": 653, "unit": "nM"},
      {"measurement": "TGI", "setting": "HOP-92 NSCLC", "result": 13000, "unit": "nM"},
      {"measurement": "GI50", "setting": "ACHN renal", "result": 250, "unit": "nM"},
      {"measurement": "GI50", "setting": "MDA-MB-231 breast", "result": 1930, "unit": "nM"},
      {"measurement": "TGI", "setting": "MDA-MB-231 breast", "result": 6370, "unit": "nM"},
      {"measurement": "GI50", "setting": "RPMI-8226 leukemia", "result": 1200, "unit": "nM"},
      {"measurement": "GI50", "setting": "SK-MEL-28 melanoma", "result": 2950, "unit": "nM"},
      {"measurement": "TGI", "setting": "SK-MEL-28 melanoma", "result": "> 100000", "unit": "nM"},
      {"measurement": "GI50", "setting": "HCC-2998 colon", "result": 46.4, "unit": "nM"},
      {"measurement": "TGI", "setting": "HCC-2998 colon", "result": "> 100000", "unit": "nM"},
      {"measurement": "GI50", "setting": "SF-268 CNS", "result": 1330, "unit": "nM"},
      {"measurement": "TGI", "setting": "SF-268 CNS", "result": "> 100000", "unit": "nM"},
      {"measurement": "GI50", "setting": "MCF7 breast", "result": 60.8, "unit": "nM"},
      {"measurement": "TGI", "setting": "MCF7 breast", "result": "> 100000", "unit": "nM"},
      {"measurement": "GI50", "setting": "MDA-MB-435", "result": 266, "unit": "nM"},
      {"measurement": "TGI", "setting": "MDA-MB-435", "result": 2540, "unit": "nM"},
      {"measurement": "GI50", "setting": "DU-145 prostate", "result": 469, "unit": "nM"},
      {"measurement": "TGI", "setting": "DU-145 prostate", "result": "> 100000", "unit": "nM"},
      {"measurement": "GI50", "setting": "UO-31 renal", "result": 284, "unit": "nM"},
      {"measurement": "TGI", "setting": "UO-31 renal", "result": 2620, "unit": "nM"},
      {"measurement": "GI50", "setting": "COLO 205 colon", "result": 575, "unit": "nM"},
      {"measurement": "TGI", "setting": "COLO 205 colon", "result": "> 100000", "unit": "nM"},
      {"measurement": "GI50", "setting": "UACC-257 melanoma", "result": 1320, "unit": "nM"},
      {"measurement": "TGI", "setting": "UACC-257 melanoma", "result": "> 76400", "unit": "nM"}
    ]}
  ]
}
